Experiments:
[1] = Elimination and retention of gadolinium in normal mice; assay type: in vivo, mouse; settings: for route of elimination (dynamic whole-body MRI): 100 μmol/kg i.v.; for Gadolinium content, Sum, % ID per Organ / Gadolinium content, Bone, % ID per Gram / Gadolinium content, Bone, % ID per Organ / Gadolinium content, Brain, % ID per Gram / Gadolinium content, Brain, % ID per Organ / Gadolinium content, Heart, % ID per Gram / Gadolinium content, Heart, % ID per Organ / Gadolinium content, Kidneys, % ID per Gram / Gadolinium content, Kidneys, % ID per Organ / Gadolinium content, Liver, % ID per Gram / Gadolinium content, Liver, % ID per Organ / Gadolinium content, Lung, % ID per Gram / Gadolinium content, Lung, % ID per Organ / Gadolinium content, Muscle, % ID per Gram / Gadolinium content, Muscle, % ID per Organ / Gadolinium content, Serum, % ID per Gram / Gadolinium content, Serum, % ID per Organ / Gadolinium content, Spleen, % ID per Gram / Gadolinium content, Spleen, % ID per Organ / Gadolinium content, Stomach, % ID per Gram / Gadolinium content, Stomach, % ID per Organ: 24 h after injection, 100 μmol/kg; for Gadolinium content, Bone, % ID per Gram / Gadolinium content, Bone, % ID per Organ / Gadolinium content, Brain, % ID per Gram / Gadolinium content, Brain, % ID per Organ / Gadolinium content, Heart, % ID per Gram / Gadolinium content, Heart, % ID per Organ / Gadolinium content, Kidneys, % ID per Gram / Gadolinium content, Kidneys, % ID per Organ / Gadolinium content, Liver, % ID per Gram / Gadolinium content, Liver, % ID per Organ / Gadolinium content, Lung, % ID per Gram / Gadolinium content, Lung, % ID per Organ / Gadolinium content, Muscle, % ID per Gram / Gadolinium content, Muscle, % ID per Organ / Gadolinium content, Serum, % ID per Gram / Gadolinium content, Serum, % ID per Organ / Gadolinium content, Spleen, % ID per Gram / Gadolinium content, Spleen, % ID per Organ / Gadolinium content, Stomach, % ID per Gram / Gadolinium content, Stomach, % ID per Organ: n = 4
Protocol: FIG. 55. […] The liver enhances slightly with first-blood pass but the signal rapidly returns to baseline after 20 min.
At 24 h post-injection (p.i.), >99% of the injected dose of gadolinium was eliminated from the body (Table B).

[2] = Stability of compounds in human plasma; assay type: in vitro ADME; settings: 37° C., 2 or 3 hours
Protocol: Stability of Compounds in Human Plasma:
A 16 μL aliquot of the Gd or Mn complex (1.0 mM) was added to 500 μL of human plasma (Lampire Biological laboratories). The solution was then incubated for 2 or 3 hours at 37° C. Aliquots (50 μL) were removed at 1, 2 or 3 hours. Proteins were precipitated by the addition of 150 μL of acetonitrile and removed following centrifugation. The supernatant was then analyzed using HPLC-ICP-MS. No unchelated gadolinium was observed nor the appearance of any new Gd/Mn-containing species.

BSA-ALD = target: T1, BSA-ALD (Bos taurus, UniProt P02769); assay: On/off rate with oxidized BSA-ALD; assay type: binding, bovine; settings: for fold higher initial on rate / reactivity with BSA-Ald compared to Gd-CHyd: BSA-Ald 10 mg/mL in PBS
T1 construct: made in house; host or cells: no expression host: BSA oxidised chemically with sodium ascorbate, ferric chloride and H2O2, then desalted on PD-10
T1 sequence (P02769 25-607): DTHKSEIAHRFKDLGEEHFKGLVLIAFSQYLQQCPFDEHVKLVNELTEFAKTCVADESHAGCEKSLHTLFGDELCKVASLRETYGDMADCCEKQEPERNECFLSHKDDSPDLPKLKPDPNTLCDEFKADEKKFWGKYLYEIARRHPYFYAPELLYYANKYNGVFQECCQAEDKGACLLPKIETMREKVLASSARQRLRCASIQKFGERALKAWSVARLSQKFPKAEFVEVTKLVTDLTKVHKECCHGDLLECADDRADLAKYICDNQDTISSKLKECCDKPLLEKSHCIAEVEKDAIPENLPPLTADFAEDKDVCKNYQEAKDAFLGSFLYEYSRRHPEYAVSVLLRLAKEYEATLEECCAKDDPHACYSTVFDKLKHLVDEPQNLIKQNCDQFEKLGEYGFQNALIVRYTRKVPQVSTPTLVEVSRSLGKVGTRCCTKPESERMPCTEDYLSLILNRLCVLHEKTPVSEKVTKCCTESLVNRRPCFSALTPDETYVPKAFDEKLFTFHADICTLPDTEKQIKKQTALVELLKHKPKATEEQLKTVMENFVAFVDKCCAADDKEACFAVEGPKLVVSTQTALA
Protocol: On Off Rate with Oxidized BSA-ALD:
BSA-ALD (10 mg/mL) was incubated with 200 μM corresponding Gd or Mn complex at 37° C. in pH 7.4 PBS), with a total volume of 300 μL. The dynamic longitudinal (T1) relaxation time were measured using a Bruker mq60 Minispec at 1.41 T and 37° C. After 24 hours, protein-bound and protein-free solutions were separated by ultrafiltration. Then 200 μL PBS was added to the residue to dissolve the protein bound species. The change of longitudinal (T1) relaxation time was then measured in Bruker mq60 Minispec at 1.41 T and 37° C.

[3] = Reaction rates with butyraldehyde measured by HPLC-ICP-MS (Method B); assay type: physicochemical; settings: Method b: butyraldehyde 100 μM, probe 25 μM, pH 7.40
Protocol: Method B: Reaction Rates of Compounds with Butyraldehyde Measured by HPLC-ICP-MS
The reactions were conducted in pH 7.40 phosphate-buffered with butyraldehyde concentration of 100 μM and hydrazine probes at 25 μM. Concentrations of unreacted starting material and condensation products were determined at 10 min time intervals over 2 hours based on their relative integrations. The values were fit to a standard first order rate constant linear equation and the rate constant was extracted from the slope.
Reaction with Butyraldehyde Monitored by HPLC-ICP-MS
Reactions were conducted in pH 7.4 phosphate-buffered saline with butyraldehyde concentration of 100 μM and hydrazine probes at 25 μM. Concentrations of unreacted starting material and condensation products were determined based on their relative integrations at 12 min time intervals over 2 hours.

PDAC6 xenograft tumor = assay: MR imaging of PDAC6 tumor xenograft model; assay type: in vivo, mouse; settings: 60 min post injection
Protocol: Male NU(NCr)-Foxn1nu nude mice at 6-8 weeks of age were provided by Charles River Labs, Wilmington, MA. A total of 1×10^7 patient derived metastatic pancreatic cancer cells (PDAC6) were injected into the subcutaneous space of the right lower back of the mice (n=4 per group). Mice were imaged with Mn-17 (100 μmol/kg) 4 weeks after implanting the tumor for pretreatment imaging, and another group of mice were imaged 3-days post treatment with FOLFIRINOX (Folinate 50 mg/kg, Oxaliplaton 2.5 mg/kg, Irinotecan 25 mg/kg, Fluorouracil 25 mg/kg).
For PDAC6 xenograft tumor imaging, images were acquired with following sequences and parameters: 3D T1 weighted FLASH (TR/TE/FA=14 ms/[…]/30°, 0.4 mm isotropic spatial resolution, field of view (FOV) 35 mm×35 mm, two average, acquisition time=4.3 min) images were acquired prior to and dynamically post injection of contrast agent; 3D RARE (RARE, TR/TE/FA=[…]/57 ms/180°, 0.3 mm isotropic spatial resolution, field of view (FOV) 35 mm×60 mm, one average, acquisition time=8.1 min) image was also acquired.
For tumor imaging analysis, RARE image and first FLASH image post-contrast were used to define volumetric region of interest (ROIs) in the tumor that excluded necrosis region. ΔCNR was calculated by eq 22.

[4] = 3-days post treatment (FOLFIRINOX)

SMILES | route of elimination (dynamic whole-body MRI) [1] | Gadolinium content, Sum, % ID per Organ [1] | Gadolinium content, Bone, % ID per Gram [1] | Gadolinium content, Bone, % ID per Organ [1] | Gadolinium content, Brain, % ID per Gram [1] | Gadolinium content, Brain, % ID per Organ [1] | Gadolinium content, Heart, % ID per Gram [1] | Gadolinium content, Heart, % ID per Organ [1] | Gadolinium content, Kidneys, % ID per Gram [1] | Gadolinium content, Kidneys, % ID per Organ [1] | Gadolinium content, Liver, % ID per Gram [1] | Gadolinium content, Liver, % ID per Organ [1] | Gadolinium content, Lung, % ID per Gram [1] | Gadolinium content, Lung, % ID per Organ [1] | Gadolinium content, Muscle, % ID per Gram [1] | Gadolinium content, Muscle, % ID per Organ [1] | Gadolinium content, Serum, % ID per Gram [1] | Gadolinium content, Serum, % ID per Organ [1] | Gadolinium content, Spleen, % ID per Gram [1] | Gadolinium content, Spleen, % ID per Organ [1] | other results
NN1CCN(C(=O)CCC(C(=O)[O-])N2CCN(CC(=O)[O-])CCN(CC(=O)[O-])CCN(C(CCC(=O)N3CCN(N)CC3)C(=O)[O-])CC2)CC1.[Gd+3] (stereo not drawn) [Gd-9, cis-1,4-Gd-(CHyd)2] | eliminated exclusively via the kidneys into the bladder | 0.625 % ID per Organ | 0.0144 ± 0.0125 % ID per Gram | 0.0455 ± 0.0174 % ID per Organ | 0.00336 ± 0.00277 % ID per Gram | 0.0013 ± 0.00125 % ID per Organ | 0.0788 ± 0.0151 % ID per Gram | 0.00708 ± 0.000802 % ID per Organ | 1.33 ± 0.152 % ID per Gram | 0.377 ± 0.0103 % ID per Organ | 0.0686 ± 0.0102 % ID per Gram | 0.0341 ± 0.0250 % ID per Organ | 0.166 ± 0.100 % ID per Gram | 0.0289 ± 0.00394 % ID per Organ | 0.0132 ± 0.00294 % ID per Gram | 0.105 ± 0.0225 % ID per Organ | 0.00138 ± 0.000861 % ID per Gram | 0.00376 ± 0.00113 % ID per Organ | 0.140 ± 0.0558 % ID per Gram | 0.00618 ± 0.000767 % ID per Organ | Gadolinium content, Stomach, % ID per Gram [1]: 0.114 ± 0.0288 % ID per Gram; Gadolinium content, Stomach, % ID per Organ [1]: 0.0157 ± 0.00274 % ID per Organ; stability in human plasma (HPLC-ICP-MS) [2]: lack of de-chelation or formation of Gd-containing metabolites; faster on-rate than monobinder Gd-CHyd (BSA-ALD): 600%; fold slower off-rate than Gd-CHyd (BSA-ALD): 1.5 fold; slower off-rate than monobinder Gd-CHyd (BSA-ALD): 50%; fold higher initial on rate / reactivity with BSA-Ald compared to Gd-CHyd (BSA-ALD): 6 fold; k (second order rate constant) [3]: 3.6 M⁻¹ s⁻¹
NN1CCN(C(=O)CCC(C(=O)[O-])N2CCN(CC(=O)[O-])CCN(C(CCC(=O)N3CCN(N)CC3)C(=O)[O-])CCN(CC(=O)[O-])CC2)CC1.[Gd+3] (stereo not drawn) [Gd-10, trans-1,7-Gd-(CHyd)2] | eliminated exclusively via the kidneys into the bladder | 0.584 % ID per Organ | 0.0180 ± 0.00486 % ID per Gram | 0.0469 ± 0.0126 % ID per Organ | 0.00206 ± 0.000288 % ID per Gram | 0.000776 ± 0.000169 % ID per Organ | 0.0219 ± 0.00212 % ID per Gram | 0.00203 ± 0.000132 % ID per Organ | 1.45 ± 0.262 % ID per Gram | 0.365 ± 0.0315 % ID per Organ | 0.105 ± 0.00715 % ID per Gram | 0.0572 ± 0.0426 % ID per Organ | 0.157 ± 0.00422 % ID per Gram | 0.0197 ± 0.00107 % ID per Organ | 0.00886 ± 0.000914 % ID per Gram | 0.0709 ± 0.0073 % ID per Organ | 0.00169 ± 0.000259 % ID per Gram | 0.00398 ± 0.000175 % ID per Organ | 0.165 ± 0.0817 % ID per Gram | 0.0086 ± 0.00085 % ID per Organ | Gadolinium content, Stomach, % ID per Gram [1]: 0.0414 ± 0.02775 % ID per Gram; Gadolinium content, Stomach, % ID per Organ [1]: 0.00869 ± 0.00207 % ID per Organ; stability in human plasma (HPLC-ICP-MS) [2]: lack of de-chelation or formation of Gd-containing metabolites; fold higher initial on rate / reactivity with BSA-Ald compared to Gd-CHyd (BSA-ALD): 3 fold; k (second order rate constant) [3]: 3.5 M⁻¹ s⁻¹
NNCC(=O)NCCCN1CCN(CC(=O)[O-])Cc2cccc(n2)CN(CC(=O)[O-])CC1.[Mn+2] [Mn-17] |  |  |  |  |  |  |  |  |  |  |  |  |  |  |  |  |  |  |  |  | ΔCNR of PDAC6 xenograft tumor (PDAC6 xenograft tumor; [4]): 6.4 ± 1.2; ΔCNR of PDAC6 xenograft tumor (PDAC6 xenograft tumor; Pre-treatment): 4.6 ± 1.0
CN(C)C(CCC(=O)NCCCN1CCN(CC(=O)[O-])Cc2cccc(n2)CN(CC(=O)[O-])CC1)C(=O)O.[Mn+2] (stereo not drawn) [Mn-18] |  |  |  |  |  |  |  |  |  |  |  |  |  |  |  |  |  |  |  |  | ΔCNR of PDAC6 xenograft tumor (PDAC6 xenograft tumor; [4]): 0.4 ± 0.3; ΔCNR of PDAC6 xenograft tumor (PDAC6 xenograft tumor; Pre-treatment): 0.4 ± 0.3
